Counter-ions that a name gives are not always drawn.
Key:
[1] = test system: serotonin release in the dorsal raphe nucleus; conditions: dorsal raphe nucleus of the rat; together with paroxetine; cited from earlier work
[2] = test system: serotonin release in the cortex; conditions: after systemic administration; cited from earlier work

COc1ccccc1N1CCN(CCn2cnc3c(c2=O)CCN(Cc2ccccc2)C3)CC1 (as salt: hydrochloride)
melting point: 181 °C

COc1ccc(NC(=O)c2ccc(-c3ccc(-c4noc(C)n4)cc3C)cc2)cc1N1CCN(C)CC1 [GR 127 935]
effect of paroxetine on serotonin release [1]: potentiated | serotonin release in the cortex [2]: reduces serotonin release in the cortex

COc1ccccc1N1CCN(CCCn2cnc3c(c2=O)CN(Cc2ccccc2)CC3)CC1 (as salt: hydrochloride)
melting point: 198 °C

— patent publication US6414157B1, “3-Substituted tetrahydropyridopyrimidinone derivatives, method for producing the same, and their use” (Abbott Laboratories, priority 1997, dated 2002)
